# Target: T1, prothrombinase complex (FXa-FVa) (Homo sapiens, UniProt P00742+P12259)
# T1 construct: Human prothrombin and factor Xa; tissue Hematologic Technologies Inc. (factor Xa only); factor Xa purchased
# Test: Kinetics of prothrombin and MzIIa activation by C6PS- or membrane-assembled prothrombinase
# Format: biochemical
# Protocol: Fluorescence Stopped-Flow Measurements. The rates of thrombin formation from either MzIIa or Pre2 (with equimolar fragment 1.2), or of thrombin plus MzIIa formation from human prothrombin, were estimated from the time-dependent fluorescence change of DAPA bound to the activation products. […] Stopped-flow measurements were performed using an SLM-Aminco Milliflow® stopped flow reactor (Spectronic Instruments, Inc., Rochester, N.Y.) attached to the SLM 48000® spectrofluorometer (Spectronic Instruments) as described (Wu, et al. (2002) supra; Weinreb, et al. (2003) supra). […] The calculation of rates from measurements of initial fluorescence intensity (F0) and intensity at the completion of the reaction (F∞) is well-established (Nesheim and Mann (1983) supra; Wu, et al. (2002) supra).
# Rapid Chemical Quench Measurements. […] Prothrombin solution in 50 mM Tris, 150 mM NaCl, 5 mM Ca^2+, 0.6% PEG (to limit thrombin adsorption to micro-plates), pH 7.5, was loaded into one sample loop, and pre-assembled prothrombinase complex (factor concentrations same as in stopped flow fluorescence studies) in the same buffer was loaded into another sample loop. […]
# T1 sequence (P00742 41-179 limits assumed): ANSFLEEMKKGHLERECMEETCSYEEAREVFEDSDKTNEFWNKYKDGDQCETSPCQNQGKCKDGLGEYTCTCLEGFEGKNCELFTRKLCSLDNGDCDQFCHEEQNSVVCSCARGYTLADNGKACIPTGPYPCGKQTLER
# T1 sequence (P00742 235-488 limits assumed): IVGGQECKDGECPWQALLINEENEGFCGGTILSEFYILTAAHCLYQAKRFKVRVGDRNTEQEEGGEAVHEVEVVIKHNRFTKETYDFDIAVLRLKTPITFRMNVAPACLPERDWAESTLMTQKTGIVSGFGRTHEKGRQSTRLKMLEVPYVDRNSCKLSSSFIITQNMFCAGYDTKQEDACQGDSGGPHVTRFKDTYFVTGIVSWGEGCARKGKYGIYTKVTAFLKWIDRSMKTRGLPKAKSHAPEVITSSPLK
# T1 sequence (P12259 29-737 limits assumed): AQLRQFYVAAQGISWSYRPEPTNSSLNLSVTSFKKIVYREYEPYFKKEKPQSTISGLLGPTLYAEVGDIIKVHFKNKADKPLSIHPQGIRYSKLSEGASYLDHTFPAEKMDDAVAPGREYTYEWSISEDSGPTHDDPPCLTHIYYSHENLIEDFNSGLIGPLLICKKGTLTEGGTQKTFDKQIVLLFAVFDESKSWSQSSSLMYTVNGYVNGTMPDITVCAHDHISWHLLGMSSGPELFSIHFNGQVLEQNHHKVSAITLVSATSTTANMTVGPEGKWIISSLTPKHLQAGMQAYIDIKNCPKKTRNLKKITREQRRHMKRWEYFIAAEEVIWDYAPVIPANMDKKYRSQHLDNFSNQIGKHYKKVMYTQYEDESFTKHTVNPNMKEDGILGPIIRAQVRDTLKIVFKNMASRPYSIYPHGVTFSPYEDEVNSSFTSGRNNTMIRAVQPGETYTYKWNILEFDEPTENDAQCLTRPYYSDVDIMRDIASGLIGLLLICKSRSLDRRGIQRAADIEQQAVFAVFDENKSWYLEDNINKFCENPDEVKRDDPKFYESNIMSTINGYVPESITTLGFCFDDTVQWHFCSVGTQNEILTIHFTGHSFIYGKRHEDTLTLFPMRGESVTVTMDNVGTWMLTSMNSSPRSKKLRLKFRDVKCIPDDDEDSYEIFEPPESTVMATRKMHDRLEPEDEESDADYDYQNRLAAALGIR
# T1 sequence (P12259 1574-2224 limits assumed): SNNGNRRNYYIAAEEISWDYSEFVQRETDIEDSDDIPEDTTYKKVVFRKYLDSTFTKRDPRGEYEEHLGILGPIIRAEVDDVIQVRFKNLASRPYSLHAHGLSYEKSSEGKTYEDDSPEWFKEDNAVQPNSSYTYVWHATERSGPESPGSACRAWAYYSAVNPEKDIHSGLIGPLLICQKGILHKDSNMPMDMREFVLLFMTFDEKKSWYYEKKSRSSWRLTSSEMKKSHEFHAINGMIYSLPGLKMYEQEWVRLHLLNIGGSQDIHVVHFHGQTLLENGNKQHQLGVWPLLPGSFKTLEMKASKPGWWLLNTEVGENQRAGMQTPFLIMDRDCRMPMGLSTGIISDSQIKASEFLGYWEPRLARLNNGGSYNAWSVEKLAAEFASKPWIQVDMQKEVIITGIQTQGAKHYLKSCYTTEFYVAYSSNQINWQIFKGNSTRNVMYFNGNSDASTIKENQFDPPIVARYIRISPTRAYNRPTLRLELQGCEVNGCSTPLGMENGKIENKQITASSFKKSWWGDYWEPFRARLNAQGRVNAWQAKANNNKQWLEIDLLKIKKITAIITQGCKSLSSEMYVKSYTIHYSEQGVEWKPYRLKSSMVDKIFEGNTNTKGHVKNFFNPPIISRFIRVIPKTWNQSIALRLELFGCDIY
structure (smiles),measurement,setting,value
"CCCCCC(=O)OC[C@H](COP(=O)(O)OC[C@H](N)C(=O)O)OC(=O)CCCCC [C6PS, 1,2-dicaproyl-sn-glycero-3-phospho-L-serine]",fraction of prothrombin converted directly (channeled) to thrombin,"400 μM C6PS, FXa 1 nM, FVa2 5 nM",58%
same,activation by C6PS-assembled complex relative to literature membrane complex,C6PS with FVa2 vs membrane with FVa,an order of magnitude faster

# From US7727736B2, “Soluble phospholipids for use in clotting factor assays” (The University of North Carolina at Chapel Hill, priority 2003, dated 2010)
